Measured values published in patent publication US6066628A, “Non-iron metalloporphyrins and methods of use” (Emory University, priority 1998, dated 2000).
≈ marks a conversion by molar mass, not a printed value. Where “and” joins values, the source holds several entries; their conditions need not be identical. Equal values may be shown once. Read-outs that look alike come from different tables or passages of the source.

Assays:
Y. enterocolitica [1] = assay: microbe, parasite or virus in culture; type: cell-based
S. aureus [2] = type: cell-based, Staphylococcus aureus; conditions: for Minimal inhibitory concentration (MIC): methicillin-resistant S. aureus IR219, Nutrient broth (Table 2); for MIC: S. aureus IR2419, dark (Table 10); for antibacterial activity: S. aureus
M. smegmatis [3] = type: cell-based, Mycobacterium smegmatis; conditions: for Minimal inhibitory concentration (MIC) / MIC: M. smegmatis LR222; for Minimal inhibitory concentration (MIC): LB + Tween 80 (Table 2); for MIC: dark (Table 10); for antibacterial activity: M. smegmatis
Y. enterocolitica [4] = assay: Minimal bactericidal concentration; type: cell-based; conditions: reduces plating efficiency more than 99.9%, minimal exposure to light; for MBC: Yersinia enterocolitica
S. aureus [5] = assay: Minimal bactericidal concentration; type: cell-based, Staphylococcus aureus; conditions: reduces plating efficiency more than 99.9%, minimal exposure to light; for MBC: Staphylococcus aureus
Description: Minimal bactericidal concentrations (MBCs) were determined essentially the same way as MICs except that the amount of killing with a particular concentration of porphyrin derivative was determined by plating on solid microbiological media (LB plates or LB+Tween 80). Media were solidified by the incorporation of 1.5% agar (Difco Laboratories). Concentrations of porphyrins that produced 99.9% reduction in bacterial counts were considered bactericidal [Hindler et al. (1994) supra].
MBC were determined by plating bacterial cultures that have been incubate
in the presence of MPs at concentrations higher than MIC. MBC was defined
as a concentration of a particular MP which reduces the plating efficienc
more than 99.9%. Experiments were done with minimal exposure to light
(addition of porphyrins waa done in the presence of artifical light).

M. smegmatis [6] = assay: Minimal bactericidal concentration; type: cell-based, Mycobacterium smegmatis; conditions: reduces plating efficiency more than 99.9%, minimal exposure to light; for MBC: Mycolicibacterium smegmatis
bacteria = type: cell-based; conditions: for MICs: porphyrins without Ga ions, all tested bacteria
S. aureus [7] = assay: Competition of heme/protoporphyrin IX with Ga-PPIX antibacterial activity; type: cell-based, Staphylococcus aureus; conditions: for antagonism of Ga-PPIX antibacterial activity: heme 10- to 100-fold molar excess, protoporphyrin IX 100-fold excess
M. smegmatis [8] = assay: as above; conditions: for antagonism of Ga-PPIX antibacterial activity: heme 10- to 100-fold molar excess, protoporphyrin IX 20- and 100-fold excess
Y. enterocolitica [9] = assay: as above
[10] = Staphylococcus aureus, read-out: MIC
[11] = Mycolicibacterium smegmatis, read-out: MIC
[12] = iron restriction / 2,2'-dipyridyl
[13] = +1 μg/ml Ga-PPIX, competitor 1 μg/ml
[14] = +1 μg/ml Ga-PPIX, competitor 10 μg/ml
[15] = +1 μg/ml Ga-PPIX, competitor 20 μg/ml
[16] = +1 μg/ml Ga-PPIX, competitor 100 μg/ml
[17] = -1 μg/ml Ga-PPIX (without Ga-PPIX), 1 μg/ml
[18] = -1 μg/ml Ga-PPIX (without Ga-PPIX), 10 μg/ml
[19] = -1 μg/ml Ga-PPIX (without Ga-PPIX), 20 μg/ml
[20] = -1 μg/ml Ga-PPIX (without Ga-PPIX), 100 μg/ml

C=CC1=C(C)c2cc3[n-]c(cc4[n-]c(cc5nc(cc1n2)C(C)=C5C=C)c(C)c4CCC(=O)O)c(CCC(=O)O)c3C.[Cu+2] [Cu-PPIX]
Minimal inhibitory concentration (MIC) (Y. enterocolitica [1]): 20
Minimal inhibitory concentration (MIC) (S. aureus [2]): > 40 µg/mL
Minimal inhibitory concentration (MIC) (M. smegmatis [3]): 20 µg/mL

CCC1=C(C)C2=Cc3c(C)c(CCC(=O)O)c4[n]3[Ga][n]3c(c(C)c(CC)c3=CC3=NC(=C4)C(CCC(=O)O)=C3C)=CC1=N2 [GA-MP-IX]
MIC (Y. enterocolitica [1]; in µg/mL): 2.5 and 5
MIC (S. aureus [2]): 1.6 µg/mL
MIC (M. smegmatis [3]): 0.4 µg/mL
Minimal bactericidal concentration (MBC) (Y. enterocolitica [4]): 5
Minimal bactericidal concentration (MBC) (S. aureus [5]): > 13
Minimal bactericidal concentration (MBC) (M. smegmatis [6]): 10

CCC1=C(CC)c2cc3[nH]c(cc4nc(cc5[nH]c(cc1n2)c(CC)c5CC)C(CC)=C4CC)c(CC)c3CC.[Ga] [GA-OEP]
MIC (Y. enterocolitica [1]; in µg/mL): 20
MIC (S. aureus [2]): 10 µg/mL
MIC (M. smegmatis [3]): 5 µg/mL
Minimal bactericidal concentration (MBC) (Y. enterocolitica [4]): > 20
Minimal bactericidal concentration (MBC) (S. aureus [5]): 5
Minimal bactericidal concentration (MBC) (M. smegmatis [6]): 10

CCC1=C(C)c2cc3[nH]c(cc4nc(cc5[nH]c(cc1n2)c(C)c5CCC(=O)O)C(CCC(=O)O)=C4C)c(C)c3CC [MP-IX, mesoporphyrin IX, reference compound]
antibacterial activity (S. aureus [2]): largely inactive
MIC (S. aureus [2]; [10]): 20 µg/mL (≈ 35.3 µM)
antibacterial activity (M. smegmatis [3]): largely inactive
MIC (M. smegmatis [3]; [11]): > 40 µg/mL
MBC (Y. enterocolitica [4]): > 10 µg/mL
MBC (S. aureus [5]): > 13 µg/mL
MBC (M. smegmatis [6]): > 40 µg/mL

C=CC1=C(C)c2cc3[n-]c(cc4[n-]c(cc5nc(cc1n2)C(C)=C5C=C)c(C)c4CCC(=O)[O-])c(CCC(=O)[O-])c3C.[H+].[H+].[Ni+2] [Ni-PPIX]
Minimal inhibitory concentration (MIC) (Y. enterocolitica [1]): > 40
Minimal inhibitory concentration (MIC) (S. aureus [2]): > 40 µg/mL
Minimal inhibitory concentration (MIC) (M. smegmatis [3]): 20 µg/mL

C1=CC2=NC1=Cc1ccc3[n]1[Ga][n]1c(ccc1=CC1=NC(=C3)C=C1)=C2 [GA-POR]
MIC (Y. enterocolitica [1]; in µg/mL): 20
MIC (S. aureus [2]): 50 µg/mL
MIC (M. smegmatis [3]): 5 µg/mL

O=C(N[C@H](CO)[C@H](O)c1ccc([N+](=O)[O-])cc1)C(Cl)Cl [chloramphenicol, reference compound]
effect of iron restriction medium conditions on MIC (bacteria; [12]): not affected

O=C(O)CCC1=C(CC(=O)O)c2cc3[nH]c(cc4nc(cc5[nH]c(cc1n2)c(CC(=O)O)c5CCC(=O)O)C(CC(=O)O)=C4CCC(=O)O)c(CC(=O)O)c3CCC(=O)O [UP-1, uroporphyrin I, reference compound]
HemR requirement of bacterial sensitivity (Y. enterocolitica [1]): did not require expression of HemR
MIC (Y. enterocolitica [1]; Yersinia enterocolitica): 10 µg/mL (≈ 12 µM)
antibacterial activity (S. aureus [2]): largely inactive
MIC (S. aureus [2]; [10]): 20 µg/mL (≈ 24.1 µM)
antibacterial activity (M. smegmatis [3]): largely inactive
MIC (M. smegmatis [3]; [11]): 20 µg/mL (≈ 24.1 µM)
Minimal bactericidal concentration (MBC) (Y. enterocolitica [4]): 5/10
MBC (S. aureus [5]): 20 µg/mL (≈ 24.1 µM)
MBC (M. smegmatis [6]): 10 µg/mL (≈ 12 µM)

C=Cc1c(C)c2cc3nc(c(CC(=O)O)c4[nH]c(cc5nc(cc1[nH]2)C(C)=C5CC)c(C)c4C(=O)O)[C@@H](CCC(=O)O)[C@@H]3C [Ce6, chlorin e6, reference compound]
MIC (Y. enterocolitica [1]): 20 and > 10
MIC (S. aureus [2]): 20 µg/mL (≈ 33.5 µM)
MIC (M. smegmatis [3]): 20 µg/mL (≈ 33.5 µM)
MICs (bacteria): very large MICs

CCC1=C(CC)c2cc3[nH]c(cc4nc(cc5[nH]c(cc1n2)c(CC)c5CC)C(CC)=C4CC)c(CC)c3CC [OEP, octaethylporphine, reference compound]
MIC (Y. enterocolitica [1]; Yersinia enterocolitica): 5 µg/mL (≈ 9.35 µM)
MIC (S. aureus [2]; [10]): 10 µg/mL (≈ 18.7 µM)
MIC (M. smegmatis [3]; [11]): 10 µg/mL (≈ 18.7 µM)
MBC (Y. enterocolitica [4]): 5 µg/mL (≈ 9.35 µM)
Minimal bactericidal concentration (MBC) (S. aureus [5]): 5/10
MBC (M. smegmatis [6]): 10 µg/mL (≈ 18.7 µM)

CC1(C)S[C@@H]2[C@H](NC(=O)[C@H](N)c3ccccc3)C(=O)N2[C@H]1C(=O)O [ampicillin, reference compound]
effect of iron restriction medium conditions on MIC (bacteria; [12]): not affected

Gallium (+3) hematoporphyrin IX
antibacterial activity (bacteria): active against all microorganisms challenged

C=CC1=C(C)c2cc3[n-]c(cc4nc(cc5[n-]c(cc1n2)c(C)c5CCC(=O)O)C(CCC(=O)O)=C4C)c(C)c3C=C.[Pt+2] [Pt-PPIX, Platinum protoporphyrin IX]
Minimal inhibitory concentration (MIC) (Y. enterocolitica [1]): 30
Minimal inhibitory concentration (MIC) (S. aureus [2]): 40 µg/mL
Minimal inhibitory concentration (MIC) (M. smegmatis [3]): 20 µg/mL

CN[C@H](CC(C)C)C(=O)N[C@H]1C(=O)N[C@@H](CC(N)=O)C(=O)N[C@H]2C(=O)N[C@H]3C(=O)N[C@H](C(=O)N[C@H](C(=O)O)c4cc(O)cc(O)c4-c4cc3ccc4O)[C@H](O)c3ccc(c(Cl)c3)Oc3cc2cc(c3O[C@@H]2O[C@H](CO)[C@@H](O)[C@H](O)[C@H]2O[C@H]2C[C@](C)(N)[C@H](O)[C@H](C)O2)Oc2ccc(cc2Cl)[C@H]1O [vancomycin, reference compound]
effect of iron restriction medium conditions on MIC (bacteria): not affected

C1=Cc2cc3ccc(cc4nc(cc5ccc(cc1n2)[nH]5)C=C4)[nH]3 [POR, porphine, reference compound]
MIC (Y. enterocolitica [1]; Yersinia enterocolitica, read-out: MIC): 30 µg/mL (≈ 96.7 µM)
MIC (Y. enterocolitica [1]; in µg/mL): 20
MIC (S. aureus [2]; [10]): 50 µg/mL (≈ 161 µM)
MIC (M. smegmatis [3]; [11]): > 40 µg/mL
MICs (bacteria): very large MICs

C=CC1=C(C)c2cc3[nH]c(cc4nc(cc5[nH]c(cc1n2)c(C)c5CCC(=O)O)C(CCC(=O)O)=C4C)c(C)c3C=C [PPIX, protoporphyrin IX]
MIC (S. aureus [2]; [10]): 50 µg/mL (≈ 88.9 µM)
MIC (M. smegmatis [3]; [11]): > 40 µg/mL
MBC (Y. enterocolitica [4]): > 40 µg/mL
MBC (S. aureus [5]): > 40 µg/mL
MBC (M. smegmatis [6]): > 20 µg/mL
growth (S. aureus [7]; [13]): -
growth (S. aureus [7]; [14]): -
growth (S. aureus [7]; [15]): -
growth (S. aureus [7]; [16]): +
growth (S. aureus [7]; [17]): +
growth (S. aureus [7]; [18]): +
growth (S. aureus [7]; [19]): +
growth (S. aureus [7]; [20]): +
antagonism of Ga-PPIX antibacterial activity (S. aureus [7]): some antagonizing effect
MICs (bacteria): very large MICs
growth (M. smegmatis [8]; [13]): -
growth (M. smegmatis [8]; [15]): +
growth (M. smegmatis [8]; [16]): +
growth (M. smegmatis [8]; [17]): +
growth (M. smegmatis [8]; [18]): +
growth (M. smegmatis [8]; [19]): +
growth (M. smegmatis [8]; [20]): +
antagonism of Ga-PPIX antibacterial activity (M. smegmatis [8]): antagonized
growth (Y. enterocolitica [9]; [13]): -
growth (Y. enterocolitica [9]; [14]): -
growth (Y. enterocolitica [9]; [15]): -
growth (Y. enterocolitica [9]; [16]): -
growth (Y. enterocolitica [9]; [17]): +
growth (Y. enterocolitica [9]; [18]): +
growth (Y. enterocolitica [9]; [19]): +
growth (Y. enterocolitica [9]; [20]): -
antagonism of Ga-PPIX antibacterial activity (Y. enterocolitica [9]; Y. enterocolitica fur mutant): not able to antagonize

C=CC1=C(C)c2cc3[n-]c(cc4[n-]c(cc5nc(cc1n2)C(C)=C5C=C)c(C)c4CCC(=O)O)c(CCC(=O)O)c3C.[Fe+2] [Fe-PPIX]
Minimal inhibitory concentration (MIC) (Y. enterocolitica [1]): > 40
Minimal inhibitory concentration (MIC) (S. aureus [2]): > 40 µg/mL
Minimal inhibitory concentration (MIC) (M. smegmatis [3]): > 40 µg/mL
growth (S. aureus [7]; [13]): -
growth (S. aureus [7]; [14]): -
growth (S. aureus [7]; [15]): -
growth (S. aureus [7]; [16]): -
growth (S. aureus [7]; [17]): +
growth (S. aureus [7]; [18]): +
growth (S. aureus [7]; [19]): +
growth (S. aureus [7]; [20]): +
antagonism of Ga-PPIX antibacterial activity (S. aureus [7]): did not antagonize
toxic effect on S. aureus (S. aureus [7]; heme dissolved in 20 mM NaOH): not observed
growth (M. smegmatis [8]; [13]): -
growth (M. smegmatis [8]; [14]): -
growth (M. smegmatis [8]; [15]): -
growth (M. smegmatis [8]; [16]): -
growth (M. smegmatis [8]; [17]): +
growth (M. smegmatis [8]; [18]): +
growth (M. smegmatis [8]; [19]): +
growth (M. smegmatis [8]; [20]): +
antagonism of Ga-PPIX antibacterial activity (M. smegmatis [8]): did not antagonize
growth (Y. enterocolitica [9]; [13]): -
growth (Y. enterocolitica [9]; [14]): +
growth (Y. enterocolitica [9]; [15]): +
growth (Y. enterocolitica [9]; [16]): +
growth (Y. enterocolitica [9]; [17]): +
growth (Y. enterocolitica [9]; [18]): +
growth (Y. enterocolitica [9]; [19]): +
growth (Y. enterocolitica [9]; [20]): +

C=CC1=C(C)C2=Cc3c(C=C)c(C)c4[n]3[Gd]([Cl])[n]3c(c(C)c(CCC(=O)O)c3=CC3=NC(=C4)C(C)=C3CCC(=O)O)=CC1=N2 [Gd-PPIX, Gadolinium protoporphyrin IX]
Minimal bactericidal concentration (MBC) (Y. enterocolitica [4]): 10
